Values of other authors as cited in US20080031898A1, “Compositions and methods to increase the effect of a neurotoxin treatment” (priority 2004, published 2008).

Tested on: BRAF(V600E) mutant xenografts
Settings: Solit et al, Nature 2006

O=C(NOC[C@H](O)CO)c1ccc(F)c(F)c1Nc1ccc(I)cc1F [PD0325901]
suppression of xenograft growth: completely suppresses the growth
